Assay results taken from patent US11986452B2, “Methods of reducing the risk of heart failure” (Amarin Pharmaceuticals Ireland Limited, priority 2021, dated 2024).

Columns and labels:
[1] = tested on: statin-treated patients with established CVD or at high risk for CVD, and hypertriglyceridemia; experiment: REDUCE-IT time-to-first-event analysis of adjudicated cardiovascular endpoints (primary, key secondary, secondary, tertiary); assay type: in vivo, human
Description: The following study, also referred to as the REDUCE-IT clinical trial, was a large cardiovascular (CV) outcome trial designed to assess CV risk reduction benefit of AMR101 treatment (commercially known as VASCEPA®) versus placebo on the 5-point primary composite endpoint: CV death, non-fatal stroke, non-fatal myocardial infarction (MI), coronary revascularizations, or unstable angina requiring hospitalization.
A multi-center, prospective, randomized, double-blind, placebo-controlled, parallel-group study was performed to evaluate the effect of AMR101 (4 g per day) on cardiovascular health and mortality in hypertriglyceridemic patients with cardiovascular disease or at high risk for cardiovascular disease. The intended expanded indication of the study was treatment with AMR101 as an add-on to statin therapy to reduce the risk of cardiovascular events in patients with clinical cardiovascular disease or with multiple risk factors for cardiovascular disease.
The primary objective of this study was, in patients at LDL-C goal while on statin therapy, with established cardiovascular disease (CVD) or at high risk for CVD, and hypertriglyceridemia (e.g., fasting triglycerides (TG) 200 mg/dL and <500 mg/dL), to evaluate the effect of AMR101 4 g daily on time from randomization to first occurrence of any component of the composite of the following major CV events: CV death; nonfatal MI; (including silent MI; electrocardiograms (ECGs) were performed annually for the detection of silent MIs); nonfatal stroke; coronary revascularization; and unstable angina determined to be caused by myocardial ischemia by invasive/non-invasive testing and requiring emergent hospitalization.
The key secondary objective of this study was to evaluate the effect of AMR101 4 g daily on the time from randomization to the first occurrence of the composite of following major CV events: CV death, nonfatal MI (including silent MI), and nonfatal stroke.
Other secondary objectives for this study were to evaluate the effect of therapy on time from randomization to the first occurrence of the following individual or composite endpoints: composite of CV death or nonfatal MI (including silent MI); fatal or nonfatal MI (including silent MI); non-elective coronary revascularization represented as the composite of emergent or urgent classifications; CV death; unstable angina determined to be caused by myocardial ischemia by invasive/non-invasive testing and requiring emergent hospitalization; fatal or nonfatal stroke; composite of total mortality, nonfatal MI (including silent MI), or nonfatal stroke; and total mortality.
Primary Efficacy Endpoint: The primary efficacy endpoint was time from randomization to the first occurrence of the composite of the following clinical events: CV death; nonfatal MI (including silent MI; ECGs were performed annually for the detection of silent MIs); nonfatal stroke; coronary revascularization; and unstable angina determined to be caused by myocardial ischemia by invasive/non-invasive testing and requiring emergent hospitalization. The first occurrence of any of these major adverse vascular events during the follow-up period of the study were included in the incidence.
Secondary Efficacy Endpoints: The key secondary efficacy endpoint was the time from randomization to the first occurrence of the composite of CV death, nonfatal MI (including silent MI), or nonfatal stroke. […]

[2] = tested on: statin-treated patients in the icosapent ethyl group; experiment: Example 5: new heart failure by on-treatment EPA tertile (post hoc); assay type: in vivo, human; settings: for New heart failure requiring hospitalization: HR vs lowest on treatment EPA tertile / New heart failure: HR vs lowest on treatment EPA tertile: post hoc, icosapent ethyl group only
Description: The mechanical or surgical intervention including mechanical circulatory support (e.g., intra-aortic balloon pump, ventricular assist device) and/or mechanical fluid removal (e.g., ultrafiltration, hemofiltration, dialysis).
New Heart Failure/Heart Failure Not Requiring Hospitalization: is defined as an event that meets all of the following: the patient has an urgent, unscheduled office/practice or emergency department visit for a primary diagnosis of HF, but not meeting the criteria for a HF hospitalization; all signs and symptoms for HF hospitalization must be met as defined in A Heart Failure Hospitalization above; and the patient receives initiation or intensification of treatment specifically for HF, as detailed in the above section with the exception of oral diuretic therapy, which was not sufficient.
The study design was the same as that described above in Example 1 related to the REDUCE-IT clinical trial.
Prespecified tertiary endpoints of NHF (HR=0.95; 95% CI, 0.77-1.17; p=0.63) and NHF requiring hospitalization (HR=0.97; 0.77-1.22; p=0.78) from the REDUCE-IT clinical trial were not significant.

[3] = REDUCE-IT safety: treatment-emergent adverse events, safety population
Description: All adverse events, including observed or volunteered problems, complaints, or symptoms, were recorded on the appropriate CRF. Each adverse event was evaluated for duration, intensity, and causal relationship with the study medication or other factors.
Adverse Events of Special Interest: Bleeding-related adverse events, glucose control (fasting blood glucose and HbA1c), and indicators of hepatic disorders (e.g., ALT or AST increases >3×ULN, total bilirubin increases of ≥2×ULN) were summarized separately and compared between treatment groups.
Analysis of Safety: All analyses of safety were conducted on the safety population, which was defined as all randomized patients. The safety assessment was based on the frequency of adverse events, physical exams, vital signs and safety laboratory tests. AEs with new onset during the study between the initiation of study drug and 30 days after the last dose of study drug for each patient was considered treatment-emergent (TEAEs). This included any AE with onset prior to initiation of study drug and increased severity after the treatment initiation.
This included overall incidence rates (regardless of severity and relationship to study drug), and incidence rates for moderate or severe adverse events. A summary of SAEs and adverse events leading to early discontinuation (for ≥30 days) were presented through data listings. Patients who restarted study drug were included in the summary of AEs leading to discontinuation. Safety laboratory tests and vital signs were summarized by post-treatment change from baseline for each of the parameters using descriptive statistics by treatment group. Those patients with significant laboratory abnormalities were identified in data listings. Additional safety parameters were summarized in data listings.

[4] = 4 g per day, hierarchical testing
[5] = 4 g/day, time to first occurrence, ITT, median follow up 4.9 years
[6] = safety population N = 4089, listed as AMR101
[7] = serious bleeding TEAE, safety population N = 4089

CC/C=C\C/C=C\C/C=C\C/C=C\C/C=C\CCCC(=O)OCC [icosapent ethyl, eicosapentaenoic acid ethyl ester]
Cardiovascular death: RRR [1, 4]: 20% | Composite of cardiovascular death or nonfatal myocardial infarction: RRR [1, 4]: 25% | Composite of total mortality, nonfatal myocardial infarction, or nonfatal stroke: reduction [1, 4]: 23% | Fatal or nonfatal myocardial infarction: RRR [1, 4]: 31% | Fatal or nonfatal stroke: RRR [1, 4]: 28% | Total mortality: reduction [1, 4]: 13% | Sudden death: reduction ([1]; 4 g/day vs placebo): 31% | Cardiovascular death: HR vs placebo ([1]; 4 g/day, ITT): 0.80 | Cardiovascular death: patients with event ([1]; 4 g/day, ITT): 4.3% | Total mortality: HR vs placebo ([1]; 4 g/day, ITT): 0.87 | Total mortality: patients with event ([1]; 4 g/day, ITT): 6.7% | Key secondary composite endpoint (CV death, nonfatal MI, or nonfatal stroke): patients with event [1, 5]: 11.2% | Primary composite endpoint (CV death, nonfatal MI, nonfatal stroke, coronary revascularization, or unstable angina): patients with event [1, 5]: 17.2% | Cardiac Arrest: HR vs placebo ([1]; tertiary endpoint): 0.52 | Coronary Revascularization: HR vs placebo ([1]; tertiary endpoint): 0.66 | Elective Revascularization: HR vs placebo ([1]; tertiary endpoint): 0.68 | Emergent Revascularization: HR vs placebo ([1]; tertiary endpoint): 0.62 | Ischemic Stroke: HR vs placebo ([1]; tertiary endpoint): 0.64 | New Heart Failure Requiring Hospitalization: HR vs placebo ([1]; tertiary endpoint): 0.97 | New Heart Failure: HR vs placebo ([1]; tertiary endpoint): 0.95 | Primary Endpoint in Patients with Diabetes at Baseline: HR vs placebo ([1]; tertiary endpoint): 0.77 | Salvage Revascularization: HR vs placebo ([1]; tertiary endpoint): 0.00 | Sudden Cardiac Death: HR vs placebo ([1]; tertiary endpoint): 0.69 | Urgent Revascularization: HR vs placebo ([1]; tertiary endpoint): 0.66 | Primary Endpoint in Patients with Diabetes at Baseline: patients with event ([1]; tertiary endpoint, 4 g/day): (18.1%) | Sudden Cardiac Death: patients with event ([1]; tertiary endpoint, 4 g/day): (1.5%) | Achieved EPA level with statistically and clinically meaningful risk reductions in NHF ([2]; EPA tertile analyses within icosapent ethyl group): above 104 μg/mL | New heart failure requiring hospitalization: HR vs lowest on treatment EPA tertile ([2]; middle EPA tertile): 0.47 | New heart failure: HR vs lowest on treatment EPA tertile ([2]; middle EPA tertile): 0.55 | New heart failure requiring hospitalization: HR vs lowest on treatment EPA tertile ([2]; upper EPA tertile): 0.45 | New heart failure: HR vs lowest on treatment EPA tertile ([2]; upper EPA tertile): 0.41 | Adverse event rate: anemia ([3]; 4 g/day): 4.7% | Adverse event rate: atrial fibrillation ([3]; 4 g/day): 5.3% | Adverse event rate: diarrhea ([3]; 4 g/day): 9% | Adverse event rate: gastrointestinal adverse events ([3]; 4 g/day): 33.0% | Adverse event rate: peripheral edema ([3]; 4 g/day): 6.5% | Atrial fibrillation or flutter requiring hospitalization (prespecified adjudicated tertiary endpoint) ([3]; 4 g/day): 3.1% | Tolerability; rates of serious adverse events versus placebo ([3]; in vivo): well tolerated | Serious TEAE ([3]; safety population N = 4089): (30.6%) | Serious TEAE (≥2%): Pneumonia ([3]; safety population N = 4089): 2.6% | Serious TEAE Leading to Death ([3]; safety population N = 4089): (2.3%) | Serious TEAE Leading to Withdrawal of Study Drug ([3]; safety population N = 4089): (2.2%) | Serious bleeding TEAE: Bleeding related disorders ([3]; safety population N = 4089): (2.7%) | Serious bleeding TEAE: Central nervous system bleeding ([3]; safety population N = 4089): (0.3%) | Serious bleeding TEAE: Gastrointestinal bleeding ([3]; safety population N = 4089): (1.5%) | Serious bleeding TEAE: Other bleeding ([3]; safety population N = 4089): (1.0%) | Subjects with at Least One TEAE ([3]; safety population N = 4089): (81.8%) | TEAE Leading to Withdrawal of Study Drug ([3]; safety population N = 4089): (7.9%) | Serious bleeding TEAE: Bleeding related disorders [3, 6]: 2.7% | Serious bleeding TEAE: Central nervous system bleeding [3, 6]: 0.3% | Serious bleeding TEAE: Gastrointestinal bleeding [3, 6]: 1.5% | Patients with Bleeding-Related Disorders, % [3, 7]: (2.7%) | Patients with Bleeding-Related Disorders, number [3, 7]: 111
